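These data come from cells grown in 96-well plates and exposed to compound for 48 hours at five concentrations. The concentration for 50% growth inhibition is given as GI50.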 Active and inactive are the calls of the source. No stated cut-off is given here; in the data, active = GI50 up to about 1.1 µM and inactive = higher.
Tests used:
Test in all cases: inhibition of tumour cell growth, NCI panel, 48 h
[1] = test system: HCT-15
[2] = test system: MDA-MB-231
[3] = test system: A549
[4] = test system: SW-620
[5] = test system: UO-31
[6] = test system: HT-29
[7] = test system: MDA-MB-435
[8] = test system: SN12C
[9] = test system: RPMI-8226
[10] = test system: NCI-H522
[11] = test system: EKVX
[12] = test system: ACHN
[13] = test system: HCT-116
[14] = test system: SK-MEL-2
[15] = test system: SK-MEL-5
[16] = test system: Hs-578T
[17] = test system: OVCAR-8
[18] = test system: BT-549
[19] = test system: OVCAR-3
[20] = test system: M14

Cn1/c(=N\c2ccccc2[N+](=O)[O-])sc2ccccc21
GI50 [1]: 2.61 µM | GI50 [2]: 6.1 µM (inactive) | GI50 [3]: > 100 µM (inactive) | GI50 [4]: > 100 µM (inactive) | GI50 [5]: > 100 µM (inactive) | GI50 [6]: > 100 µM (inactive) | GI50 [7]: > 100 µM (inactive) | GI50 [8]: 84.1 µM (inactive) | GI50 [9]: > 100 µM (inactive) | GI50 [10]: 9.29 µM (inactive) | GI50 [11]: 8.61 µM (inactive) | GI50 [12]: 61.5 µM (inactive) | GI50 [13]: 72.8 µM (inactive) | GI50 [14]: 33.7 µM (inactive) | GI50 [15]: 19.2 µM (inactive) | GI50 [16]: 16.5 µM (inactive) | GI50 [17]: 49.9 µM (inactive)

CC(C)(C)c1cc2c(O)c(c1)COCc1cc(C(C)(C)C)cc(c1O)COCc1cc(C(C)(C)C)cc(c1O)COC2
GI50 [1]: > 100 µM | GI50 [3]: > 100 µM (inactive) | GI50 [4]: > 100 µM (inactive) | GI50 [5]: 35.5 µM (inactive) | GI50 [7]: > 100 µM (inactive) | GI50 [18]: > 100 µM (inactive) | GI50 [9]: 50.4 µM (inactive) | GI50 [19]: > 100 µM (inactive) | GI50 [11]: > 100 µM (inactive) | GI50 [12]: 63.2 µM (inactive) | GI50 [13]: 97.3 µM (inactive) | GI50 [14]: > 100 µM (inactive) | GI50 [15]: 99.3 µM (inactive) | GI50 [20]: 88.5 µM (inactive) | GI50 [17]: > 100 µM (inactive)

COS(=O)c1cc(Cl)cc(Cl)c1OC(=O)CSSCC(=O)Oc1c(Cl)cc(Cl)cc1S(=O)OC (stereo not drawn)
GI50 [1]: 14.4 µM | GI50 [3]: 13.2 µM (inactive) | GI50 [4]: 28.4 µM (inactive) | GI50 [5]: 13.2 µM (inactive) | GI50 [6]: 30.4 µM (inactive) | GI50 [8]: 10.2 µM (inactive) | GI50 [9]: 12.5 µM (inactive) | GI50 [19]: 23.9 µM (inactive) | GI50 [10]: 14.2 µM (inactive) | GI50 [11]: 20 µM (inactive) | GI50 [12]: 21 µM (inactive) | GI50 [14]: 17.3 µM (inactive) | GI50 [15]: 17.4 µM (inactive) | GI50 [20]: 18.8 µM (inactive) | GI50 [17]: 20.5 µM (inactive)

COc1ccc(NC(=O)/C(O)=C/C(=O)c2ccccc2)cc1
GI50 [1]: > 10 µM | GI50 [2]: > 10 µM (inactive) | GI50 [3]: > 10 µM (inactive) | GI50 [4]: > 10 µM (inactive) | GI50 [6]: > 10 µM (inactive) | GI50 [7]: > 10 µM (inactive) | GI50 [8]: > 10 µM (inactive) | GI50 [9]: > 10 µM (inactive) | GI50 [11]: > 10 µM (inactive) | GI50 [15]: > 10 µM (inactive) | GI50 [20]: > 10 µM (inactive) | GI50 [17]: > 10 µM (inactive)

CCCCCCC(=O)C/C(CCC(=O)N(Cc1ccccc1)Cc1ccccc1)=N\NC(N)=O
GI50 [1]: > 100 µM | GI50 [3]: > 100 µM (inactive) | GI50 [4]: > 100 µM (inactive) | GI50 [5]: > 100 µM (inactive) | GI50 [6]: > 100 µM (inactive) | GI50 [8]: > 100 µM (inactive) | GI50 [9]: > 100 µM (inactive) | GI50 [19]: > 100 µM (inactive) | GI50 [10]: > 100 µM (inactive) | GI50 [11]: > 100 µM (inactive) | GI50 [12]: > 100 µM (inactive) | GI50 [13]: > 100 µM (inactive) | GI50 [14]: > 100 µM (inactive) | GI50 [15]: > 100 µM (inactive) | GI50 [20]: > 100 µM (inactive) | GI50 [17]: > 100 µM (inactive)

CCN(CC)CC/N=c1\c2cc(OC)ccc2[nH]c2c([N+](=O)[O-])ccc(NCCN(CC)CC)c12
GI50 [1]: 1.02 µM | GI50 [2]: 0.966 µM (active) | GI50 [3]: 1.05 µM (active) | GI50 [4]: 0.6 µM (active) | GI50 [5]: 1.17 µM (inactive) | GI50 [6]: 0.7 µM (active) | GI50 [7]: 1.88 µM (inactive) | GI50 [8]: 0.925 µM (active) | GI50 [9]: 0.451 µM (active) | GI50 [19]: 1.92 µM (inactive) | GI50 [10]: 1.14 µM (inactive) | GI50 [11]: 1.93 µM (inactive) | GI50 [12]: 2.78 µM (inactive) | GI50 [13]: 0.853 µM (active) | GI50 [14]: 2.06 µM (inactive) | GI50 [15]: 1.57 µM (inactive) | GI50 [20]: 2.88 µM (inactive) | GI50 [16]: 1.46 µM (inactive) | GI50 [17]: 0.482 µM (active)

COc1ccc(/C=C2\NC(=S)N(CN3CCOCC3)C2=O)cc1
GI50 [1]: > 100 µM | GI50 [2]: > 100 µM (inactive) | GI50 [3]: > 100 µM (inactive) | GI50 [4]: > 100 µM (inactive) | GI50 [5]: > 100 µM (inactive) | GI50 [6]: > 100 µM (inactive) | GI50 [7]: > 100 µM (inactive) | GI50 [8]: > 100 µM (inactive) | GI50 [9]: > 100 µM (inactive) | GI50 [19]: > 100 µM (inactive) | GI50 [11]: > 100 µM (inactive) | GI50 [12]: > 100 µM (inactive) | GI50 [13]: > 100 µM (inactive) | GI50 [14]: > 100 µM (inactive) | GI50 [15]: > 100 µM (inactive) | GI50 [20]: > 100 µM (inactive) | GI50 [16]: > 100 µM (inactive) | GI50 [17]: > 100 µM (inactive)

CC1CCCc2c(CC3CC(=O)NC(=O)C3)nc(N)nc21 (stereo not drawn)
GI50 [1]: > 100 µM | GI50 [2]: > 100 µM (inactive) | GI50 [3]: > 100 µM (inactive) | GI50 [4]: > 100 µM (inactive) | GI50 [6]: > 100 µM (inactive) | GI50 [7]: > 100 µM (inactive) | GI50 [18]: > 100 µM (inactive) | GI50 [8]: > 100 µM (inactive) | GI50 [9]: > 100 µM (inactive) | GI50 [19]: > 100 µM (inactive) | GI50 [11]: > 100 µM (inactive) | GI50 [13]: > 100 µM (inactive) | GI50 [14]: > 100 µM (inactive) | GI50 [15]: > 100 µM (inactive) | GI50 [20]: > 100 µM (inactive) | GI50 [17]: > 100 µM (inactive)
